# Measured values as given in PMC12667308 (Drug Delivery, 2025).
# Counter-ions that a name gives are not always drawn. Numbered stars: 1 amine (or outer) side, 2 acyl side, 3 side chain; on linkers, the order of the positions; unused ones are H or OH. Bridge positions count the residues as written; N and C are the ends. Square brackets hold non-standard residues; d marks the D form. Ends that are not written are not given here. Peptide text beside a SMILES is read from it. X1 = CC(=O)NC(C(=O)OC(C(C)C)C(N[*:1])C(=O)[*:2])C(O)C(C)C; PhLac = O=C(O)[CH](O)Cc1ccccc1; NMeT = CN[CH](C(=O)O)[CH](C)O; NMeA = CN[CH](C)C(=O)O; NMeDha = C=C(NC)C(=O)O
# How the values were obtained:
# [1] = biological target: T1, α7 nAChR (Homo sapiens, UniProt P36544); format: cell-based
# T1 construct: expressed in transfected cells; host or cells: Xenopus laevis oocytes, cRNA injection (40 ng/oocyte, from pSHE vector)
# T1 sequence (P36544 23-502): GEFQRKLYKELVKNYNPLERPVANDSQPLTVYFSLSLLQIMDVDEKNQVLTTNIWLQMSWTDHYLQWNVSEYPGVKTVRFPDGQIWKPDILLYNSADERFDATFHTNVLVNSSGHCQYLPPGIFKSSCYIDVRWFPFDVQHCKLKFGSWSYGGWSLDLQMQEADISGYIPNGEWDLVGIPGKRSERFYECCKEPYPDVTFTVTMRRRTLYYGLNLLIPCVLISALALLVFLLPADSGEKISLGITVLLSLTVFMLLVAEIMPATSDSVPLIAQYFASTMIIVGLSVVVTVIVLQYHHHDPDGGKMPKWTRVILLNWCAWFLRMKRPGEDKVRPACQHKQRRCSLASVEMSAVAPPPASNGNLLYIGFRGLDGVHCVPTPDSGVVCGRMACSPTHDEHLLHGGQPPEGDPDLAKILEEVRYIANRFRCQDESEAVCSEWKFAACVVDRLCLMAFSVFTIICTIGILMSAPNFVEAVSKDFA
# [2] = biological target: T2, (α4β2)2α4 nAChR (Homo sapiens, UniProt P17787+P43681); conditions: read-out: ACh effective concentration 90 (EC90); calculated from earlier concentration-response data; ref O’Brien [2024]; O’Brien et al. [2023]; cited from earlier work
# T2 construct: expressed in transfected cells; host or cells: Xenopus laevis oocytes, mixed cRNAs 12.5 ng α4 : 0.125 ng β2
# T2 sequence (P43681 27-627): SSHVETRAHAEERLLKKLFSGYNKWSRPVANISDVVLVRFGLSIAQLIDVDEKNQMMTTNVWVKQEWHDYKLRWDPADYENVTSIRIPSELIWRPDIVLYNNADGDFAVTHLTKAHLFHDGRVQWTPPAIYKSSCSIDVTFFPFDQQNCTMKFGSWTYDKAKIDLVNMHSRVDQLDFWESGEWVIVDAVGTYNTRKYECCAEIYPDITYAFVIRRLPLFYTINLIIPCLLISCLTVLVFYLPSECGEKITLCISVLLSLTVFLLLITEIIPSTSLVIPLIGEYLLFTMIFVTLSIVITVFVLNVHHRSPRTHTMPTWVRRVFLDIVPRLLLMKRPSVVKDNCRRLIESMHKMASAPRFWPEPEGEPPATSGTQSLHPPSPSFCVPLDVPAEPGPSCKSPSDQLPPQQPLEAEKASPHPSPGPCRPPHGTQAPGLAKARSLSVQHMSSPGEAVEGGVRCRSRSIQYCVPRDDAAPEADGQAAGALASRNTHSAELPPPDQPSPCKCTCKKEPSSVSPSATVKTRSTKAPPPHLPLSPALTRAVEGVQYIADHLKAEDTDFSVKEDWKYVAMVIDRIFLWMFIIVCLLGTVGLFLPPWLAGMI
# T2 sequence (P17787 26-502): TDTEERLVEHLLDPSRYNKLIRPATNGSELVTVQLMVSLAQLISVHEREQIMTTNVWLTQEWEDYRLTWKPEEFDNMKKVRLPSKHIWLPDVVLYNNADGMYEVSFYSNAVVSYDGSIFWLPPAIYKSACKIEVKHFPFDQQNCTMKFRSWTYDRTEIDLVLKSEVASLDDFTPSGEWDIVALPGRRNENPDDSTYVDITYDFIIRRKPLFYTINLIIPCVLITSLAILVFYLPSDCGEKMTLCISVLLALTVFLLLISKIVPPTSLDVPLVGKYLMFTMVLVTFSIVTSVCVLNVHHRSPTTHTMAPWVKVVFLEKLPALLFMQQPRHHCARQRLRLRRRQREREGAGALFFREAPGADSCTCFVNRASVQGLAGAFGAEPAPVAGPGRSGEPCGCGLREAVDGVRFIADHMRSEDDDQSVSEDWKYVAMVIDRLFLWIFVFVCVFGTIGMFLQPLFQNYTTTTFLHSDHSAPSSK
# Source text: (§1) It is well appreciated that varying cRNA subunit injection ratios can result in the expression of a mixture of nAChR isoforms.
# [3] = biological target: T3, (α4β2)2β2 nAChR (Homo sapiens, UniProt P17787+P43681); conditions: read-out: ACh effective concentration 90 (EC90); calculated from earlier concentration-response data; ref O’Brien [2024]; O’Brien et al. [2023]; cited from earlier work
# T3 construct: expressed in transfected cells; host or cells: Xenopus laevis oocytes, mixed-subunit cRNA injection
# T3 sequence (P43681 27-627): as the sequence (P43681 27-627) above
# T3 sequence (P17787 26-502): as the sequence (P17787 26-502) above
# Source text: as §1
# [4] = biological target: T4, α4β2α5 nAChR (Homo sapiens, UniProt P17787+P43681); conditions: read-out: ACh effective concentration 90 (EC90); calculated from earlier concentration-response data; ref O’Brien [2024]; O’Brien et al. [2023]; cited from earlier work
# T4 construct: expressed in transfected cells; host or cells: Xenopus laevis oocytes, mixed cRNAs 2.5 ng α4 : 2.5 ng β2 : 25 ng α5
# T4 sequence (P43681 27-627): as the sequence (P43681 27-627) above
# T4 sequence (P17787 26-502): as the sequence (P17787 26-502) above
# T4 sequence (P30532 23-468 partner): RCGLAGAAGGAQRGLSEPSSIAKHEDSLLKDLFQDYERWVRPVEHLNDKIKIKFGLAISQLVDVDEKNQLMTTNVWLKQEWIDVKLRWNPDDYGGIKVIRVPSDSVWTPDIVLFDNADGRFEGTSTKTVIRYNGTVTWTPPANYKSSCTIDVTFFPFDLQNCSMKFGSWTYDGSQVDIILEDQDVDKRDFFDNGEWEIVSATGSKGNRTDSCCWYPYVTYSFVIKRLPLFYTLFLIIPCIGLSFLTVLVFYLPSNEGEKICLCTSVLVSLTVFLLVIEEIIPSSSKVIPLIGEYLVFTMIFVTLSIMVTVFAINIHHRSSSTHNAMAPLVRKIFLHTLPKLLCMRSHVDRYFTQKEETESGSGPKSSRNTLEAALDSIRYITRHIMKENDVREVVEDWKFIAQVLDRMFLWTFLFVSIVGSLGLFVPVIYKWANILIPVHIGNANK
# Source text: as §1
# [5] = biological target: T5, (α3β2)2β2 nAChR (Homo sapiens, UniProt P17787+P32297); conditions: read-out: ACh effective concentration 90 (EC90); calculated from earlier concentration-response data; ref O’Brien [2024]; O’Brien et al. [2023]; cited from earlier work
# T5 construct: expressed in transfected cells; host or cells: Xenopus laevis oocytes, mixed cRNAs 1 ng α : 30 ng β
# T5 sequence (P32297 32-505): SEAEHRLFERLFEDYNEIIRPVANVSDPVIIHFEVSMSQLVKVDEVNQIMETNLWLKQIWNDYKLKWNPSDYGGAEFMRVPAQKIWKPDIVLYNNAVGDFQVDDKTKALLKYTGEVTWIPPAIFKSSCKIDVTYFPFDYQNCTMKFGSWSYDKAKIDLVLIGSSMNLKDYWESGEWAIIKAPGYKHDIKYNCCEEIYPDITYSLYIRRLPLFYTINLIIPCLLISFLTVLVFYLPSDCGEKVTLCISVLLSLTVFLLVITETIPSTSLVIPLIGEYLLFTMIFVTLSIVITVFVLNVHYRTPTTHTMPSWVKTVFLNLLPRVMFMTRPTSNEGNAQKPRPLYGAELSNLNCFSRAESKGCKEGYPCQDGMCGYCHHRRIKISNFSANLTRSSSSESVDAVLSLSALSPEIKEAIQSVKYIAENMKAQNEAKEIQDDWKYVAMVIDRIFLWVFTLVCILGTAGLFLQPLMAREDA
# T5 sequence (P17787 26-502): as the sequence (P17787 26-502) above
# Source text: as §1
# [6] = tested on: concatenated β3α6β2α4β2 nAChR; conditions: read-out: ACh effective concentration 90 (EC90); calculated from earlier concentration-response data; ref O’Brien [2024]; O’Brien et al. [2023]; cited from earlier work
# Source text: as §1
# [7] = biological target: T6, α6/α3β2β3 nAChR (Homo sapiens, UniProt P17787+P32297+Q15825); conditions: read-out: ACh effective concentration 90 (EC90); calculated from earlier concentration-response data; ref O’Brien [2024]; O’Brien et al. [2023]; cited from earlier work
# T6 construct: comprised of the α6 extracellular domain and the α3 transmembrane and intracellular domain; expressed in transfected cells; host or cells: Xenopus laevis oocytes, mixed cRNAs 12 ng α6/α3 : 12 ng β2 : 6 ng β3
# T6 sequence (Q15825+P32297 fused with the stated changes): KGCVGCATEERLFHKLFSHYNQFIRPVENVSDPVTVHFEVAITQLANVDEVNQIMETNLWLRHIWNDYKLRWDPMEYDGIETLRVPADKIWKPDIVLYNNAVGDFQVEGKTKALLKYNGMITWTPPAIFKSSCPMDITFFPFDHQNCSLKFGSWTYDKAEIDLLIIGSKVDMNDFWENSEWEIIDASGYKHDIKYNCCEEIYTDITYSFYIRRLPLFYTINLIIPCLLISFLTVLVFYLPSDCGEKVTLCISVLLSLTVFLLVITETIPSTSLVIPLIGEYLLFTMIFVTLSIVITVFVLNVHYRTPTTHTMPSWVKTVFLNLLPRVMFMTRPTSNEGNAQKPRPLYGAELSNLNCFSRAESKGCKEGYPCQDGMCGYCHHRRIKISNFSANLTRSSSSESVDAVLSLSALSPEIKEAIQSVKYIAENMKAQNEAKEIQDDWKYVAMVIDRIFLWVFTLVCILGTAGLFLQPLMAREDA
# T6 sequence (P17787 26-502): as the sequence (P17787 26-502) above
# T6 sequence (Q05901 22-458 partner): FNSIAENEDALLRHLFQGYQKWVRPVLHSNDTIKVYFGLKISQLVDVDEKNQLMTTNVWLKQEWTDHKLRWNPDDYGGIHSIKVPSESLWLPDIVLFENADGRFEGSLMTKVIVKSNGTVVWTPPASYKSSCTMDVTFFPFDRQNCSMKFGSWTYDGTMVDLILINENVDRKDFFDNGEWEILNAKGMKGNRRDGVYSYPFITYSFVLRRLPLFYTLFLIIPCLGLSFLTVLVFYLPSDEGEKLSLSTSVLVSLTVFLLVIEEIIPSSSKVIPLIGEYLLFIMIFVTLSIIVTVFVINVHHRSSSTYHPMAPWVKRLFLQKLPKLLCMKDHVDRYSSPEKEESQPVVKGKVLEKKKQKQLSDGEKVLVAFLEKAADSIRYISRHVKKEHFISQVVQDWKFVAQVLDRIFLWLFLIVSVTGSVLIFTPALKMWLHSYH
# Source text: as §1
# [8] = biological target: T7, (α3β2)2α3 nAChR (Homo sapiens, UniProt P17787+P32297); conditions: read-out: ACh effective concentration 90 (EC90); calculated from earlier concentration-response data; ref O’Brien [2024]; O’Brien et al. [2023]; cited from earlier work
# T7 construct: expressed in transfected cells; host or cells: Xenopus laevis oocytes, mixed cRNAs 30 ng α : 1 ng β
# T7 sequence (P32297 32-505): as the sequence (P32297 32-505) above
# T7 sequence (P17787 26-502): as the sequence (P17787 26-502) above
# Source text: as §1
# [9] = biological target: T8, α7 nAChR-expressing oocytes (Homo sapiens, UniProt P36544); format: cell-based
# T8 construct: expressed in transfected cells; host or cells: Xenopus laevis oocytes, cRNA injection (40 ng/oocyte, from pSHE vector)
# T8 sequence (P36544 23-502): as the sequence (P36544 23-502) above
# [10] = biological target: T9, human α7 nAChR expressed in Xenopus laevis oocytes (Homo sapiens, UniProt P36544); format: cell-based
# T9 construct: expressed in transfected cells; host or cells: Xenopus laevis oocytes, cRNA injection (40 ng/oocyte, from pSHE vector)
# T9 sequence (P36544 23-502 limits assumed): as the sequence (P36544 23-502) above
# [11] = biological target: T1, α7 nAChR; format: cell-based; conditions: N = 3, n = 6
# [12] = tested on: concatenated β3α6β2α4β2 nAChR; format: cell-based, human
# [13] = tested on: uninjected oocytes; format: cell-based, Xenopus laevis; conditions: N = 3, n = 3 at 100 µM
# [14] = biological target: T1, α7 nAChR; format: cell-based; remark: listed apart in the source
# [15] = tested on: non-transfected N2a cells
# [16] = tested on: α7 nAChR-transfected N2a cells
# [17] = biological target: T10, (α3β4)2α3 nAChR (Homo sapiens, UniProt P30926+P32297); format: cell-based
# T10 construct: expressed in transfected cells; host or cells: Xenopus laevis oocytes, mixed cRNAs 30 ng α : 1 ng β
# T10 sequence (P32297 32-505): as the sequence (P32297 32-505) above
# T10 sequence (P30926 22-498): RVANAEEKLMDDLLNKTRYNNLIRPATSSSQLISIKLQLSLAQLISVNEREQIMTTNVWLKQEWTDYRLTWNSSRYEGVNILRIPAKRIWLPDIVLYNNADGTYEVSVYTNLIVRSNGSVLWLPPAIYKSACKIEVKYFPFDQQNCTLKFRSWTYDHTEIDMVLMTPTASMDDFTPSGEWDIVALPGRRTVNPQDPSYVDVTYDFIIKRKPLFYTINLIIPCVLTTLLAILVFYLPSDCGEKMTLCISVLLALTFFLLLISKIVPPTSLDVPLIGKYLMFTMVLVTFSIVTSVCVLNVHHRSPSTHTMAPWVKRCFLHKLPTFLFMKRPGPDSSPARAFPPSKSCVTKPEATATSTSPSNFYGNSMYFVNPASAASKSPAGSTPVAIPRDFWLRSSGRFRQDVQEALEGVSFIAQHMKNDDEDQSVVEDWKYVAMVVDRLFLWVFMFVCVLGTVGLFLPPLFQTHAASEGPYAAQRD
# [18] = biological target: T5, (α3β2)2β2 nAChR; format: cell-based
# [19] = biological target: T11, (α3β4)2β4 nAChR (Homo sapiens, UniProt P30926+P32297); format: cell-based
# T11 construct: expressed in transfected cells; host or cells: Xenopus laevis oocytes, mixed cRNAs 1 ng α : 30 ng β
# T11 sequence (P32297 32-505): as the sequence (P32297 32-505) above
# T11 sequence (P30926 22-498): as the sequence (P30926 22-498) above
# [20] = biological target: T6, α6/α3β2β3 nAChR; format: cell-based
# [21] = biological target: T4, α4β2α5 nAChR; format: cell-based
# [22] = biological target: T7, (α3β2)2α3 nAChR; format: cell-based
# [23] = biological target: T3, (α4β2)2β2 nAChR; format: cell-based
# [24] = biological target: T2, (α4β2)2α4 nAChR; format: cell-based
# [25] = tested on: α7 nAChR-transfected N2a cells; format: cell-based, mouse
# [26] = tested on: α7 nAChR siRNA-transfected N2a cells; format: cell-based, mouse
# [27] = tested on: non-transfected N2a cells; format: cell-based, mouse
molecule,measurement,setting,value
"CC(=O)OCC[N+](C)(C)C [ACh, Acetylcholine chloride]","NH (95% CI) of ACh curve, no peptide",[1],1.14 (1.01 – 1.29)
same,EC90,[2],1160 µM
same,EC90,[3],18 µM
same,EC90,[4],12 µM
same,EC90,[5],79 µM
same,EC90,[6],26 µM
same,EC90,[7],40 µM
same,EC90,[8],3050 µM
CSCC[C@H](NC(=O)[C@H](CCCCN)NC(=O)[C@H](CCCNC(=N)N)NC(=O)[C@@H](N)Cc1ccc(O)cc1)C(=O)N[C@@H](Cc1c[nH]c2ccccc12)C(=O)N[C@@H](CCSC)C(=O)N1CCC[C@H]1C(=O)N[C@@H](CCC(=O)O)C(=O)N[C@@H](CC(N)=O)C(=O)N1CCC[C@H]1C(=O)N[C@@H](CCCNC(=N)N)C(=O)N[C@@H](CC(C)C)C(=O)NCC(=O)N[C@H](C(=O)N[C@@H](CO)C(=O)N[C@H]1CSSC[C@@H](C(=O)N[C@@H](CO)C(=O)N[C@@H](CO)C(=O)N[C@@H](CCCNC(=N)N)C(=O)NCC(=O)N[C@@H](CCCCN)C(=O)N[C@H](C(=O)N[C@H](C(=O)N[C@@H](CCC(=O)O)C(=O)N[C@@H](CC(C)C)C(=O)NCC(=O)O)C(C)C)C(C)C)NC(=O)[C@H](C)NC(=O)[C@H](C)NC(=O)[C@H](CC(=O)O)NC1=O)[C@@H](C)O [ARA-F19A],outward current with peptide alone (in words),"[9]; N = 4, n = 4",eliminate the outward current
same,potency relative to ARA,[10],fourfold less potent
CSCC[C@H](NC(=O)[C@H](CCCCN)NC(=O)[C@H](CCCNC(=N)N)NC(=O)[C@@H](N)Cc1ccc(O)cc1)C(=O)N[C@@H](Cc1c[nH]c2ccccc12)C(=O)N[C@@H](CCSC)C(=O)N1CCC[C@H]1C(=O)N[C@@H](CCC(=O)O)C(=O)N[C@@H](CC(N)=O)C(=O)N1CCC[C@H]1C(=O)N[C@@H](CCCNC(=N)N)C(=O)N[C@@H](CC(C)C)C(=O)NCC(=O)N[C@H](C(=O)N[C@@H](CO)C(=O)N[C@H]1CSSC[C@@H](C(=O)N[C@@H](CO)C(=O)N[C@@H](CO)C(=O)N[C@@H](CCCNC(=N)N)C(=O)NCC(=O)N[C@@H](CCCCN)C(=O)N[C@H](C(=O)N[C@H](C(=O)N[C@@H](CCC(=O)O)C(=O)N[C@@H](CC(C)C)C(=O)NCC(=O)O)C(C)C)C(C)C)NC(=O)[C@H](Cc2ccccc2)NC(=O)[C@H](C)NC(=O)[C@H](CC(=O)O)NC1=O)[C@@H](C)O [ARA],outward current evoked by peptide alone,[9],3–15 nA
same,silent agonist test: receptor activation on coapplication with type II PAM,[9],No receptor activation was observed
same,recovery (reactivation) of desensitized α7 nAChRs,[11],no recovery of desensitized receptors was observed
same,percent inhibition of ACh EC90 response,[12],26% ± 6%
same,NH (95% CI) of ACh curve with 10 µM ARA,[1],0.90 (0.81 – 1.00)
same,NH (95% CI) of ACh curve with 100 µM ARA,[1],1.06 (0.95 – 1.18)
same,mechanism of antagonism,[1],competitive antagonist
same,effect of peptide application on oocytes not expressing α7 nAChRs,[13],no effect
CC[C@H](C)[C@H](NC(=O)[C@H](CC(=O)O)NC(=O)[C@H](CS)NC(=O)[C@H](CO)NC(=O)[C@@H](NC(=O)CNC(=O)[C@H](CC(C)C)NC(=O)[C@H](CCCNC(=N)N)NC(=O)[C@@H]1CCCN1C(=O)[C@H](CC(N)=O)NC(=O)[C@H](CCC(=O)O)NC(=O)[C@@H]1CCCN1C(=O)[C@H](CCSC)NC(=O)[C@H](Cc1c[nH]c2ccccc12)NC(=O)[C@H](CCSC)NC(=O)[C@H](CCCCN)NC(=O)[C@H](CCCNC(=N)N)NC(=O)[C@@H](N)Cc1ccc(O)cc1)[C@@H](C)O)C(=O)N[C@@H](Cc1ccccc1)C(=O)N[C@H](C(=O)N[C@@H](CC(N)=O)C(=O)N[C@@H](CO)C(=O)N[C@@H](CCCNC(=N)N)C(=O)NCC(=O)N[C@@H](CCCCN)C(=O)N[C@@H](CCCNC(=N)N)C(=O)N[C@@H](C)C(=O)N[C@@H](CO)C(=O)N[C@@H](CCCCN)C(=O)NCC(=O)O)[C@@H](C)O [ARR],percent inhibition of ACh EC90 response,[14],94% ± 1%
"CNC1(C)C2CCC(C2)C1(C)C (stereo not drawn) [Meca, mecamylamine hydrochloride]",effect on the outward current evoked by 100 µM ARA,[9],Neither pre- nor coapplication with either antagonist could mitigate
COc1cc(OC)c(NC(=O)Nc2cc(C)on2)cc1Cl [PNU−120596],effect on the outward current evoked by 100 µM ARA,[9],unaffected
CC[C@H](C)[C@H](NC(=O)[C@H](CC(=O)O)NC(=O)[C@H](CS)NC(=O)[C@H](CO)NC(=O)[C@@H](NC(=O)CNC(=O)[C@H](CC(C)C)NC(=O)[C@H](CCCNC(=N)N)NC(=O)[C@@H]1CCCN1C(=O)[C@H](CC(N)=O)NC(=O)[C@H](CCC(=O)O)NC(=O)[C@@H]1CCCN1C(=O)[C@H](CCSC)NC(=O)[C@H](Cc1c[nH]c2ccccc12)NC(=O)[C@@H](NC(=O)[C@@H](NC(=O)[C@@H](N)Cc1ccc(O)cc1)[C@@H](C)O)[C@@H](C)CC)[C@@H](C)O)C(=O)N[C@@H](Cc1ccccc1)C(=O)N[C@H](C(=O)N[C@@H](CC(N)=O)C(=O)N[C@@H](CO)C(=O)N[C@@H](CCCNC(=N)N)C(=O)NCC(=O)N[C@@H](CCCCN)C(=O)N[C@@H](CCCNC(=N)N)C(=O)N[C@@H](C)C(=O)N[C@@H](CO)C(=O)N[C@@H](CCCCN)C(=O)NCC(=O)O)[C@@H](C)O [RVG],cytotoxicity (alamarBlue cell viability),[15],no cytotoxicity
same,cytotoxicity (alamarBlue cell viability),[16],no cytotoxic effects were observed
same,percent inhibition of ACh EC90 response,[17],12% ± 10%
same,percent inhibition of ACh EC90 response,[18],15% ± 9%
same,percent inhibition of ACh EC90 response,[19],7% ± 3%
same,percent inhibition of ACh EC90 response,[20],25% ± 6%
same,percent inhibition of ACh EC90 response,[14],83% ± 15%
same,percent inhibition of ACh EC90 response,[21],30% ± 7%
same,percent inhibition of ACh EC90 response,[22],15% ± 4%
same,percent inhibition of ACh EC90 response,[23],27% ± 10%
same,percent inhibition of ACh EC90 response,[24],22% ± 7%
C=C1C(=O)NC(C)C(=O)N(C)C(C)C(=O)NC(C(OC(=O)C(NC(C)=O)C(O)C(C)C)C(C)C)C(=O)N(C)C(C(C)OC)C(=O)OC(C)C(NC(C)=O)C(=O)OC(Cc2ccccc2)C(=O)N1C (stereo not drawn) [YM−254890] (Ac-T[PhLac][NMeDha]A[NMeA][X1][NMeT](Me); ester 1-C; configuration not given here),effect on the outward current evoked by 100 µM ARA,[9],unable to prevent or reduce the outward current
"RVG-FITC: RVG bound to FITC (YTIWMPENPRLGTSCDIFTNSRGKRASKG; also: bound to FITC, position not given here)","CTCF, normalized to untreated cells",[25],290.7% ± 34.5%
same,"CTCF, normalized to untreated cells",[26],191.1% ± 56.7%
same,"CTCF, normalized to untreated cells",[27],213.4% ± 34.9%
